Values of other authors as cited in article PMC10615786 (Cell, 2023).

Legend:
ROS level = settings: general statement, no data or reference printed
LRX4 = settings: modulates salt tolerance
LRX3 = settings: modulates salt tolerance

Molecule | ROS levels in vivo (ROS level) | binding to LRX4 (LRX4) | binding to LRX3 (LRX3)
c1ccc2c(c1)[I+]c1ccccc1-2 [DPI] | lower ROS levels in vivo | – | –
sRALF23: stigma-expressing RALF peptide (ATRRYISYGALRRNTIPCSRRGASYYNCRRGAQANPYSRGCSAITRCRRS; UniProt Q9LUS7 89-138, looked up) | – | bind to LRX3 and LRX4 | bind to LRX3 and LRX4
